# Results: the supplement of paper PMC11061612
# Tests used:
# [1] = system: Hs-578-T (Breast Carcinoma); assay: combination Emax (second highest fraction inhibited in the dose matrix, 72 h); higher = more inhibition; extreme values may be limits of the assay
# Procedure, shortened: (§1)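 After 24 hours at 37°C and 5% CO2 in 1536-well plates, cells in DMEM/F12 or RPMI plus 10% FBS received two-drug dose matrices for 72 hours. Viability came from CellTiter-Glo 2.0 luminescence and was scaled as inhibition, anchored at 0 by vehicle wells and at 1 by blank wells. Combination Emax is taken as the second-highest inhibition in the matrix, and Bliss excess as the observed combination effect less EA + EB − EA·EB, with EA and EB the single-agent effects.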
# [2] = system: NCI-H82 (Small Cell Lung Carcinoma); assay: as above
# Procedure, shortened: as §1
# [3] = system: KP-1N (Pancreatic Carcinoma); assay: as above
# Procedure, shortened: as §1
# [4] = system: LB831-BLC (Bladder Carcinoma); assay: as above
# Procedure, shortened: as §1
# [5] = system: CAL-148 (Breast Carcinoma); assay: as above
# Procedure, shortened: as §1
# [6] = system: ES4 (Ewing's Sarcoma); assay: as above
# Procedure, shortened: as §1
# [7] = system: NB10 (Neuroblastoma); assay: Bliss excess, mean over the matrix (fraction); higher = more synergy
# Procedure, shortened: as §1
# [8] = system: 42-MG-BA (Glioblastoma); assay: as above
# Procedure, shortened: as §1
# [9] = system: Hs-578-T (Breast Carcinoma); assay: as above
# Procedure, shortened: as §1
# [10] = system: COLO-205 (Colorectal Carcinoma); assay: as above
# Procedure, shortened: as §1
# [11] = system: DEL (T-Cell Non-Hodgkin's Lymphoma); assay: as above
# Procedure, shortened: as §1
# [12] = system: SNU-5 (Gastric Carcinoma); assay: as above
# Procedure, shortened: as §1
# [13] = system: UM-UC-3 (Bladder Carcinoma); assay: as above
# Procedure, shortened: as §1
# [14] = system: HCC1806 (Breast Carcinoma); assay: as above
# Procedure, shortened: as §1
# [15] = system: B-CPAP (Thyroid Gland Carcinoma); assay: as above
# Procedure, shortened: as §1
# [16] = system: HuP-T4 (Pancreatic Carcinoma); assay: as above
# Procedure, shortened: as §1
# [17] = system: KURAMOCHI (Ovarian Carcinoma); assay: as above
# Procedure, shortened: as §1
# [18] = system: MDA-MB-361 (Breast Carcinoma); assay: as above
# Procedure, shortened: as §1
# [19] = system: HT-1376 (Bladder Carcinoma); assay: as above
# Procedure, shortened: as §1
# [20] = system: Ramos-2G6-4C10 (Burkitt's Lymphoma); assay: as above
# Procedure, shortened: as §1
# 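For Bliss excess, mean over the matrix in this document: after 72 h of two-drug dosing.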
SMILES,combination Emax [1],combination Emax [2],combination Emax [3],combination Emax [4],combination Emax [5],combination Emax [6],Bliss excess [7],Bliss excess [8],Bliss excess [9],Bliss excess [10],Bliss excess [11],Bliss excess [12],Bliss excess [13],Bliss excess [14],Bliss excess [15],Bliss excess [16],Bliss excess [17],Bliss excess [18],Bliss excess [19],Bliss excess [20]
"CC(=O)c1c(C)c2cnc(Nc3ccc(N4CCNCC4)cn3)nc2n(C2CCCC2)c1=O [Palbociclib] + Cn1cnc2c(F)c(Nc3ccc(Br)cc3Cl)c(C(=O)NOCCO)cc21 [Selumetinib] (first compound max 10 µM, 7x7, partner max 10 µM)",0.344,0.627,0.196,0.223,0.303,0.224,0.0998,-0.0776,0.0135,-0.081,0.0224,0.0031,-0.0001,0.0382,0.0321,0.0396,0.0078,-0.0238,-0.047,-0.023
"COc1cccc(OCCCN)c1-c1cc(Nc2cnc(C#N)cn2)n[nH]1 [Prexasertib] + C=CCn1c(=O)c2cnc(Nc3ccc(N4CCN(C)CC4)cc3)nc2n1-c1cccc(C(C)(C)O)n1 [AZD1775] (first compound max 1 µM, partner max 1 µM)",0.942,0.996,0.575,0.836,1,0.893,0.13,0.0835,-0.0242,0.125,0.0279,0.0491,0.14,0.0552,0.154,0.0747,0.0282,0.0331,-0.0538,0.112
"COc1cccc(OCCCN)c1-c1cc(Nc2cnc(C#N)cn2)n[nH]1 [Prexasertib] + CCc1c2c(nc3ccc(O)cc13)-c1cc3c(c(=O)n1C2)COC(=O)[C@]3(O)CC [SN-38] (first compound max 1 µM, 7x7, partner max 0.3 µM)",0.982,1,0.64,0.921,0.935,0.878,-0.0986,0.0122,0.0856,0.153,-0.0068,-0.0085,0.0017,-0.001,0.0695,-0.0424,0.0311,-0.0298,-0.0265,0.0754
"COc1cccc(OCCCN)c1-c1cc(Nc2cnc(C#N)cn2)n[nH]1 [Prexasertib] + CN(C)CCCOc1ccc(-c2ccc3ncc4c(c3c2)n(C2CCOCC2)c(=O)n4C)cn1 [AZD0156] (first compound max 1 µM, 7x7, partner max 1 µM)",0.942,1,0.298,0.413,0.642,0.912,0.015,0.023,0.0101,0.061,-0.0201,-0.0703,-0.0174,-0.0262,-0.0156,-0.0273,-0.0425,0.0014,-0.007,0.0693
"COc1cccc(OCCCN)c1-c1cc(Nc2cnc(C#N)cn2)n[nH]1 [Prexasertib] + C[C@@H]1COCCN1C2=NC(=NC(=C2)C3(CC3)[S@](=N)(=O)C)C4=C5C=CNC5=NC=C4 [AZD6738] (first compound max 1 µM, 7x7, partner max 10 µM)",0.912,0.995,0.324,0.363,0.895,0.879,-0.0145,-0.0994,-0.0779,0.0369,0.001,-0.0371,0.0563,-0.0472,-0.0345,-0.0504,-0.0707,-0.018,-0.0105,-0.0191
"COc1cccc(OCCCN)c1-c1cc(Nc2cnc(C#N)cn2)n[nH]1 [Prexasertib] + Cc1cc2ncnn2cc1Nc1ncc2c(n1)n(C1CCOCC1)c(=O)n2C [AZD7648] (first compound max 1 µM, 7x7, partner max 10 µM)",0.925,1,0.246,0.314,0.734,0.93,-0.0407,-0.0574,-0.0453,0.0227,-0.0097,-0.0111,-0.0198,-0.0193,0.0049,0.0127,-0.0628,-0.0196,-0.0373,0.0025
"COc1cccc(OCCCN)c1-c1cc(Nc2cnc(C#N)cn2)n[nH]1 [Prexasertib] + O=C(c1cc(Cc2n[nH]c(=O)c3ccccc23)ccc1F)N1CCN(C(=O)C2CC2)CC1 [Olaparib] (first compound max 1 µM, 7x7, partner max 10 µM)",0.925,0.925,0.332,0.448,0.696,0.887,-0.0272,-0.0399,-0.0324,-0.0301,0.0035,-0.0633,-0.0015,-0.0284,-0.007,-0.0834,-0.0891,-0.0509,-0.0976,-0.0875
"COc1cc2c(cc1OCCCCCOc1cc3c(cc1OC)C(=O)N1C=C(C)C[C@H]1C=N3)N=C[C@@H]1CC(C)=CN1C2=O [SG3199] + O=C(c1cc(Cc2n[nH]c(=O)c3ccccc23)ccc1F)N1CCN(C(=O)C2CC2)CC1 [Olaparib] (first compound max 0.001 µM, 7x7, partner max 10 µM)",0.256,0.323,0.18,0.159,0.211,0.566,-0.0067,0.0075,-0.0422,-0.0256,0.0108,-0.0105,-0.0308,-0.0132,0.0434,-0.0256,-0.0693,-0.035,-0.0503,-0.0122
"CCc1c2c(nc3ccc(O)cc13)-c1cc3c(c(=O)n1C2)COC(=O)[C@]3(O)CC [SN-38] + CN(C)CCCOc1ccc(-c2ccc3ncc4c(c3c2)n(C2CCOCC2)c(=O)n4C)cn1 [AZD0156] (first compound max 0.3 µM, 7x7, partner max 1 µM)",0.635,0.824,0.627,0.723,0.912,0.947,-0.0533,0.0561,0.169,0.0073,0.117,-0.0237,0.06,-0.0222,0.0105,0.0028,0.0421,-0.063,-0.0547,0.0361
"C[C@@H](c1ccc2nccn2c1)n1nnc2ncc(-c3cnn(C)c3)nc21 [Savolitinib] + CC1(C)CCC(CN2CCN(c3ccc(C(=O)NS(=O)(=O)c4ccc(NCC5CCOCC5)c([N+](=O)[O-])c4)c(Oc4cnc5[nH]ccc5c4)c3)CC2)=C(c2ccc(Cl)cc2)C1 [Venetoclax] (first compound max 1 µM, 7x7, partner max 1 µM)",0.312,0.225,0.13,0.179,0.143,0.113,-0.0389,-0.04,-0.0363,-0.0675,-0.0385,-0.0585,-0.0574,-0.0367,-0.0453,-0.0575,-0.0274,-0.0349,-0.0443,-0.0183
"C[C@@H](c1ccc2nccn2c1)n1nnc2ncc(-c3cnn(C)c3)nc21 [Savolitinib] + Cc1c2c(nn1C)CSCc1cc(n(C)n1)CSc1cc(c3ccccc3c1)OCCCc1c(C(=O)O)n(C)c3c-2c(Cl)ccc13 [AZD5991] (first compound max 1 µM, 7x7, partner max 1 µM)",0.47,0.875,0.194,0.232,0.275,0.117,-0.0278,-0.0633,-0.0137,-0.0386,-0.0441,0.0188,-0.0161,0.0014,-0.0221,-0.0618,-0.0332,-0.0841,-0.0206,0.0002
"Cn1cnc2c(F)c(Nc3ccc(Br)cc3Cl)c(C(=O)NOCCO)cc21 [Selumetinib] + C=CCn1c(=O)c2cnc(Nc3ccc(N4CCN(C)CC4)cc3)nc2n1-c1cccc(C(C)(C)O)n1 [AZD1775] (first compound max 10 µM, partner max 1 µM)",0.577,0.855,0.257,0.406,0.849,0.433,-0.0125,-0.0509,-0.0423,-0.0256,-0.043,-0.0239,-0.0187,0.0042,-0.0704,0.0161,0.0427,-0.053,-0.0093,-0.0956
"Cn1cnc2c(F)c(Nc3ccc(Br)cc3Cl)c(C(=O)NOCCO)cc21 [Selumetinib] + CC(C)n1c(=O)n(C)c2cnc3cc(F)c(-c4ccc(OCCCN5CCCCC5)nc4)cc3c21 [AZD1390] (first compound max 10 µM, 7x7, partner max 0.3 µM)",0.369,0.177,0.102,0.214,0.158,0.0668,-0.0323,-0.0321,-0.0426,-0.0209,0.0087,0.0649,-0.0205,-0.0029,-0.0222,-0.0086,-0.055,-0.044,-0.0416,-0.0211
"Cn1cnc2c(F)c(Nc3ccc(Br)cc3Cl)c(C(=O)NOCCO)cc21 [Selumetinib] + CCN(CCO)CCCOc1ccc2c(Nc3cc(CC(=O)Nc4cccc(F)c4)[nH]n3)ncnc2c1 [AZD2811] (first compound max 10 µM, 7x7, partner max 1 µM)",0.491,0.442,0.135,0.226,0.927,0.145,-0.0402,-0.0458,0.0203,-0.0081,0.263,0.0274,-0.048,-0.0063,0.001,-0.0161,-0.0203,-0.004,-0.0488,-0.0321
